Experimental data: US5130139A, “Reduction or prevention of skin irritation by drugs” (Alza Corporation, priority 1990, dated 1992)
Like-named read-outs stand apart in the source and are kept apart here. Each block holds one molecule with its values, some of them ahead of it.

Key:
human skin fibroblasts [1] = experiment: in vitro
Description: (§1) The following examples are offered to illustrate the practice of the present invention. It is important to note that this invention is not limited to any particular transdermal device or other form of transdermal delivery, as are commonly known in the art. Nor is this invention limited to a particular formulation. Therefore, the embodiments described herein are merely illustrative and are not intended to limit the scope of the invention in any manner.
(§2) Four beta-adrenergic blocking drugs (propranolol, labetalol, pindolol and timolol) were tested for their uptake and their toxicity in human skin fibroblasts.
(§3) To estimate the toxicity of the tested compounds, the general procedure of the MTT assay (Swisher et al., Models Dermatol., Maibach and Lowe (eds.), Basel, Karger, vol. 4, pp 131-137, 1989) was used. Cell cultures of fibroblasts were incubated for 16 hours in medium containing a range of concentrations of the drug being tested. At the end of the incubation time, the medium was removed and replaced with medium containing MTT at 0.5 mg/ml. After 3 hours, this medium was discarded and the blue formazan, a metabolite of MTT produced only by viable cells, was dissolved in acidified isopropanol. Absorbance of this solution was measured at 540 nm against a reference wavelength of 660 nm. Results were then expressed as percent of control cultures incubated in the same conditions without drug or agent.
(§4) The treated cells were also tested for the cytotoxic effect of propranolol in the presence of various concentrations of monensin, following the procedures of Example 1.
(§5) They were tested with 10^-6 M monensin.
(§6) In the Table, the "factor of protection" is the ratio of the ID50 of the toxic drug incubated with monensin to the ID50 of the toxic drug alone.
(§7) The action of various ionophores and amphiphilic amines on the cytotoxicity of propranolol and chloroquine was determined, following the procedures of Example 1. The "factor of protection" corresponds to the ratio of the ID50 of the toxic drug incubated with uptake-inhibiting agent at the indicated concentration, to the ID50 of the toxic drug alone. The "mode of action" indicates either the ions which are preferentially carried by the tested ionophores or that the agent acts by competition.

lysosomes = details: literature; cited from earlier work
[2] = In vitro permeation through human epidermis from gels; type: in vitro ADME; details: gels of Example 5; 37° C.; sampled at 3, 8 and 24 hours
Procedure: Circular pieces of human epidermis were mounted in horizontal permeation cells (1.13 cm^2 of effective permeating surface) with the stratum corneum facing the donor compartment of the cell. A known volume (20-23 ml) of 0.2M TRIS buffer pH 7.5 (the receptor solution) was placed in the receptor compartment. The cell was then placed in a water bath-shaker at 37° C. and allowed to equilibrate. A 0.2 ml aliquot of the tested formulation was transferred to the donor compartment. Occlusion was achieved by the use of a teflon film in contact with the formulation. At 3, 8 and 24 hours, the receptor solutions were removed and replaced with equal volumes of fresh receptor solution previously equilibrated at 37° C. Chloroquine was quantified in the samples by fluorometrical measurements. These were carried out at room temperature in a Perkin-ElmerLS-5B luminescence spectrometer. The samples were adjusted to pH 8.65 at a final TRIS concentration of 0.1M and 30% (vol/vol) ethanol. The excitation wavelength was 333 nm and the emission wavelength was 382 nm. Chloroquine concentrations were extrapolated by comparison with a standard curve obtained under the same conditions. […] For each formulation condition, eight permeation cells were used. Results are presented as the means with their associated standard error.

in vitro = details: human, skin fibroblasts
Description: as §1, §2, §3, §4, §5, §6, §7

human skin fibroblasts [3] = experiment: Uptake/accumulation of radiolabelled drug in fibroblasts, 16 h incubation; type: cell-based
Procedure: For the uptake studies, cell cultures of fibroblasts were exposed to medium containing the radioactive-labelled drug and incubated for 16 hours. The uptake process was then stopped by removing the medium and rapidly washing the cells with cold PBS three times. The cells were then extracted with methanol which was transferred to counting vials, and the amount of radioactivity was measured by liquid scintillation. To compensate for non-specific binding to the plastic of the wells, wells containing no cells were incubated with the radiolabelled drugs under the same conditions. The radioactive content of those wells was taken as the control value and substracted form the radioactive content of the wells containing cells.
Fibroblast cell cultures were incubated for 16 hours in propranolol (2×10^-7 M) with various concentrations of monensin. The accumulation of propranolol in the cells was then determined, following the procedures of Example 1. […] At 10^-5 M monensin, propranolol uptake was negligible even though the cells were fully viable.

[4] = tested on: skin irritation (erythema), volar forearm; experiment: In vivo skin irritation (erythema, Minolta Chromameter) after 16 h application of gel to volar forearm; parameters: species or system human; details: monensin 5.0 wt % with chloroquine 1.0 wt % gel
Procedure: The resulting gels were buffered to pH 8.5 with EPPS buffer and contained 30 wt % ethanol to maintain the solubility of the drug.
All of the gels were placed in such manner. After 16 hours, each cup was removed and the site was washed. At various times thereafter the sites were observed and the intensity of the irritant reaction (the erythema) was scored by measuring skin color with an electronic instrument, the Minolta Chromameter.

[5] = against chloroquine cytotoxicity, agent 10^-5 M
[6] = against propranolol cytotoxicity, agent 10^-5 M
[7] = against chloroquine cytotoxicity, agent 10^-2 M

Factor of Protection, Chloroquine (ID50 with agent / ID50 alone) (human skin fibroblasts [1]): 1
Factor of Protection, Propranolol (ID50 with agent / ID50 alone) (human skin fibroblasts [1]): 1
Molecule: C1COCCOCCOCCOCCO1 [15-Crown-5]

Molecule: Oc1ccc2ccccc2c1-c1c(O)ccc2ccccc12 [(R)(+)-1,1'-bi-2-Naphthol, (R)(+)-1,1'-bi-2-naphthol]
Factor of Protection, Chloroquine (ID50 with agent / ID50 alone) (human skin fibroblasts [1]; against chloroquine cytotoxicity, agent 3.5 × 10^-5 M): 2.9

Molecule: CNc1ccc2oc(C[C@H]3O[C@@]4(CC[C@H]3C)O[C@H]([C@H](C)C(=O)c3ccc[nH]3)[C@H](C)C[C@H]4C)nc2c1C(=O)O [A23187]
Factor of Protection, Chloroquine (ID50 with agent / ID50 alone) (human skin fibroblasts [1]; against chloroquine cytotoxicity, agent 10^-6 M): 11
Factor of Protection, Propranolol (ID50 with agent / ID50 alone) (human skin fibroblasts [1]; against propranolol cytotoxicity, agent 10^-6 M): 1

Molecule: N#CC(C#N)=NNc1cccc(Cl)c1 [Carbonyl cyanide m-chlorophenylhydrazone, carbonyl cyanide m-chlorophenylhydrazone]
Factor of Protection, Chloroquine (ID50 with agent / ID50 alone) (human skin fibroblasts [1]; [5]): 13
Factor of Protection, Propranolol (ID50 with agent / ID50 alone) (human skin fibroblasts [1]; [6]): 1

Molecule: CCN(CC)CCCC(C)Nc1ccnc2cc(Cl)ccc12 (stereo not shown) [Chloroquine, chloroquine]
Accumulation in lysosomes (lysosomes): have been shown to accumulate in lysosomes
Permeation through human epidermis with versus without ammonium chloride [2]: the same
Factor of Protection (ID50 with monensin / ID50 alone) (human skin fibroblasts [1]): 10.0
Factor of Protection, Propranolol (ID50 with agent / ID50 alone) (human skin fibroblasts [1]): 1
CC50 at 16 h (in vitro; ID50 (M), Drug + Monensin): 0.0007 M
CC50 at 16 h (in vitro; ID50 (M), Drug Alone): 7e-05 M

Factor of Protection (ID50 with monensin / ID50 alone) (human skin fibroblasts [1]): 1.6
Molecule: CN(C)CCCN1c2ccccc2Sc2ccc(Cl)cc21 [Chlorpromazine]
CC50 at 16 h (in vitro; ID50 (M), Drug + Monensin, Table A, with 10^-6 M monensin, 16 h): 1.6e-05 M
CC50 at 16 h (in vitro; ID50 (M), Drug Alone, Table A, 16 h): 1e-05 M

Factor of Protection (ID50 with monensin / ID50 alone) (human skin fibroblasts [1]): 1.2
Molecule: CN1CCC[C@@H]1CCO[C@](C)(c1ccccc1)c1ccc(Cl)cc1 [Clemastine]

Factor of Protection, Chloroquine (ID50 with agent / ID50 alone) (human skin fibroblasts [1]): 1.5
Molecule: OCCNCCO [Diethanolamine]

Molecule: CCNCC [Diethylamine]
Factor of Protection, Chloroquine (ID50 with agent / ID50 alone) (human skin fibroblasts [1]; [7]): 3.3

Factor of Protection, Chloroquine (ID50 with agent / ID50 alone) (human skin fibroblasts [1]): 6.4
Molecule: NCCO [Ethanolamine]

Molecule: CN(C)CCCN1c2ccccc2CCc2ccccc21 [Imipramine]
Factor of Protection (ID50 with monensin / ID50 alone) (human skin fibroblasts [1]): 1.4
CC50 at 16 h (in vitro; ID50 (M), Drug + Monensin): 0.00027 M
CC50 at 16 h (in vitro; ID50 (M), Drug Alone): 0.00019 M

Molecule: CC(C)N [Isopropylamine]
Factor of Protection, Chloroquine (ID50 with agent / ID50 alone) (human skin fibroblasts [1]; [7]): 6.2

Molecule: CC[C@@]1([C@@H]2O[C@@H]([C@H]3O[C@@](O)(CO)[C@H](C)C[C@@H]3C)C[C@@H]2C)CC[C@H]([C@]2(C)CC[C@]3(C[C@H](O)[C@@H](C)[C@@H]([C@@H](C)[C@@H](OC)[C@H](C)C(=O)O)O3)O2)O1 [Monensin, monensin]
Propranolol uptake at 10^-5 M monensin (human skin fibroblasts [3]; propranolol 2×10^-7 M, monensin 10^-5 M): negligible
Effect of monensin on propranolol uptake in the cells (human skin fibroblasts [3]; propranolol 2×10^-7 M, monensin 10^-8 M to 10^-5 M): decreased propranolol uptake in the cells in a dose-dependent manner
Viability of cells at 10^-5 M monensin (human skin fibroblasts [3]; with propranolol 2×10^-7 M, monensin 10^-5 M): fully viable
Effect of monensin on toxicity of five weak base drugs (human skin fibroblasts [1]; 10^-6 M monensin, clemastine, imipramine, chlorpromazine, quinacrine, chloroquine): reduced the toxicity of all the drugs
Factor of Protection, Chloroquine (ID50 with agent / ID50 alone) (human skin fibroblasts [1]; [5]): 19
Factor of Protection, Propranolol (ID50 with agent / ID50 alone) (human skin fibroblasts [1]; against propranolol cytotoxicity, agent 10^-5 M, pre-treatment of 2 hours with agent): 1.41
Effect of monensin on propranolol toxicity (human skin fibroblasts [1]; monensin 10^-8 M to 10^-5 M): dose-dependent decrease of propranolol toxicity
Effect of monensin on irritant reaction (erythema) [4]: reduced the irritant reaction

Molecule: CO[C@@H]1C[C@@H](C[C@H]2CC[C@H](C)[C@H]([C@@H](C)C(=O)O)O2)O[C@]2(O[C@](C)([C@H]3CC[C@@](C)([C@@H]4O[C@@H]([C@H]5O[C@@](O)(CO)[C@H](C)C[C@@H]5C)C[C@@H]4C)O3)C[C@H]2C)[C@@H]1C [Nigericin]
Factor of Protection, Chloroquine (ID50 with agent / ID50 alone) (human skin fibroblasts [1]; against chloroquine cytotoxicity, agent 1.5 × 10^-7 M): 11

Molecule: C[C@@H]1C[C@H]2CC[C@H](O2)[C@H](C)C(=O)O[C@@H](C)C[C@@H]2CC[C@@H](O2)[C@@H](C)C(=O)O[C@H](C)C[C@H]2CC[C@H](O2)[C@H](C)C(=O)O[C@@H](C)C[C@@H]2CC[C@@H](O2)[C@@H](C)C(=O)O1 [Nonactin]
Factor of Protection, Chloroquine (ID50 with agent / ID50 alone) (human skin fibroblasts [1]; against chloroquine cytotoxicity, agent 5 × 10^-6 M): 26
Factor of Protection, Propranolol (ID50 with agent / ID50 alone) (human skin fibroblasts [1]; against propranolol cytotoxicity, agent 5 × 10^-6 M): 1

Molecule: CC(C)NCC(O)COc1cccc2ccccc12 (stereo not shown) [Propranolol, propranolol]
Accumulation in lysosomes (lysosomes): have been shown to accumulate in lysosomes
Factor of Protection, Chloroquine (ID50 with agent / ID50 alone) (human skin fibroblasts [1]): 1.8
CC50 at 16 h (in vitro; ID50 (concentration of drug required to kill 50% of the cells), drug alone): 0.00028 M
CC50 at 16 h (in vitro; ID50 (concentration of drug required to kill 50% of the cells), drug with monensin): 0.00038 M

Factor of Protection (ID50 with monensin / ID50 alone) (human skin fibroblasts [1]): 3.2
Molecule: CCN(CC)CCCC(C)Nc1c2ccc(Cl)cc2nc2ccc(OC)cc12 (stereo not shown) [Quinacrine]
CC50 at 16 h (in vitro; ID50 (M), Drug + Monensin): 4.2e-05 M
CC50 at 16 h (in vitro; ID50 (M), Drug Alone): 1.3e-05 M

Factor of Protection, Chloroquine (ID50 with agent / ID50 alone) (human skin fibroblasts [1]): 1.2
Molecule: NC(CO)(CO)CO [Tromethamine]

Molecule: CC(C)[C@@H]1NC(=O)[C@H](C)OC(=O)[C@@H](C(C)C)NC(=O)[C@@H](C(C)C)OC(=O)[C@H](C(C)C)NC(=O)[C@H](C)OC(=O)[C@@H](C(C)C)NC(=O)[C@@H](C(C)C)OC(=O)[C@H](C(C)C)NC(=O)[C@H](C)OC(=O)[C@@H](C(C)C)NC(=O)[C@@H](C(C)C)OC1=O [Valinomycin]
Factor of Protection, Chloroquine (ID50 with agent / ID50 alone) (human skin fibroblasts [1]; [5]): 13
Factor of Protection, Propranolol (ID50 with agent / ID50 alone) (human skin fibroblasts [1]; [6]): 1

Molecule: Ammonium chloride
Factor of Protection, Chloroquine (ID50 with agent / ID50 alone) (human skin fibroblasts [1]; against chloroquine cytotoxicity, agent 4 × 10^-2 M): 26
Factor of Protection, Propranolol (ID50 with agent / ID50 alone) (human skin fibroblasts [1]; against propranolol cytotoxicity, agent 4 × 10^-2 M, pre-treatment of 2 hours with agent): 1.3

Molecule: Gramicidin D
Factor of Protection, Chloroquine (ID50 with agent / ID50 alone) (human skin fibroblasts [1]; [5]): 31
Factor of Protection, Propranolol (ID50 with agent / ID50 alone) (human skin fibroblasts [1]; [6]): 1
